According to ChEMBL document CHEMBL5465560, “Selectivity Literature for EUbOPEN Chemogenomic Library” (2024):

Assays:
[1] = target: T1, RNA 5'-monophosphate methyltransferase (Homo sapiens) (UniProt Q7Z5W3); test: Selectivity interaction (Methyltransferase screen (radiometric assays, panel of 8 PRMTs, 21 protein lysine methyltransferases, 3 DNA methyltransferases, and one RNA methyltransferase)) EUB0000271b BCDIN3D
T1 sequence (whole entry): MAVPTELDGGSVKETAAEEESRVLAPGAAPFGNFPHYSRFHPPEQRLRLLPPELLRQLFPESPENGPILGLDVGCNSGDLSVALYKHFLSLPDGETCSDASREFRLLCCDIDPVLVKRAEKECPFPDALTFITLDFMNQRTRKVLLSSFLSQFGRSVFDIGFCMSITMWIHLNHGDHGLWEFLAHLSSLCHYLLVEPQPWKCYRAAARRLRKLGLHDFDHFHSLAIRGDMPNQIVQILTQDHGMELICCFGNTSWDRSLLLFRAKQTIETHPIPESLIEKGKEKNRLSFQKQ

[2] = target: T2, Serine/threonine-protein kinase TAO2 (Homo sapiens) (UniProt Q9UL54); test: Selectivity interaction (Ambit KINOMEscan and KiNATiv profiling in Jurkat cells) EUB0000090b TAOK2; type: cell-based; conditions: at 1 µM
T2 sequence (whole entry): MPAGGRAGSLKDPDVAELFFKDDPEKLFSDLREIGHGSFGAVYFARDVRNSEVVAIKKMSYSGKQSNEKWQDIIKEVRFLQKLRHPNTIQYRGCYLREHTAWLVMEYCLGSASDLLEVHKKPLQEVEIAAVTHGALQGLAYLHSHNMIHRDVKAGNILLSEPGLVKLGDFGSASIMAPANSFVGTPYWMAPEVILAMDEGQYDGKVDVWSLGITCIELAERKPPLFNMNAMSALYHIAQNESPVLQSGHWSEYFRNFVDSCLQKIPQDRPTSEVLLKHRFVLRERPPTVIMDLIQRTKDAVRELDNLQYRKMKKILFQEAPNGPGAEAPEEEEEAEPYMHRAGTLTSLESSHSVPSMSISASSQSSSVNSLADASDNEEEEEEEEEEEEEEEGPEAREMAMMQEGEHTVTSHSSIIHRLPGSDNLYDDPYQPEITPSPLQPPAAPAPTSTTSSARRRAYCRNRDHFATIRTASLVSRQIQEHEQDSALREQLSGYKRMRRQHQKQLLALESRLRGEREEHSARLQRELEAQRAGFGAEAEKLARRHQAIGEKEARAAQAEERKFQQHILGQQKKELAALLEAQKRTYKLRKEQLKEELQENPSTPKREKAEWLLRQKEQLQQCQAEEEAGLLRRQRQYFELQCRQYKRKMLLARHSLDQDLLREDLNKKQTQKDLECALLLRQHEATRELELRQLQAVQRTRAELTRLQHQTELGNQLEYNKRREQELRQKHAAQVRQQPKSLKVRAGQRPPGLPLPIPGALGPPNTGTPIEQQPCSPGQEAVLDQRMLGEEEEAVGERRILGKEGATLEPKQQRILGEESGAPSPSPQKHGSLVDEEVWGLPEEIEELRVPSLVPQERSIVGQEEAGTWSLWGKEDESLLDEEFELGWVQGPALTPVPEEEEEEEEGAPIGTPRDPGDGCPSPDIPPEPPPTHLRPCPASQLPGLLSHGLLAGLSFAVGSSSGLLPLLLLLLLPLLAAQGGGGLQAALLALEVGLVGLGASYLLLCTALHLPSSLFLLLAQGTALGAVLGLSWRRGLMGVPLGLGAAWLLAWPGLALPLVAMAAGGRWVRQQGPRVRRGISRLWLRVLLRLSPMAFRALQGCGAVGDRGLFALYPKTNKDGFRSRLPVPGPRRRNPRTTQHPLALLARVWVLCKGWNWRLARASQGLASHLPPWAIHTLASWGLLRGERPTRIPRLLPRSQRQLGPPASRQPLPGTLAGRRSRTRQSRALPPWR

[3] = target: T3, Serine/threonine-protein kinase D2 (Homo sapiens) (UniProt Q9BZL6); test: Selectivity interaction (Ambit KINOMEscan and KiNATiv profiling in Jurkat cells) EUB0000090b PRKD2; type: cell-based; conditions: at 1 µM
T3 sequence (whole entry): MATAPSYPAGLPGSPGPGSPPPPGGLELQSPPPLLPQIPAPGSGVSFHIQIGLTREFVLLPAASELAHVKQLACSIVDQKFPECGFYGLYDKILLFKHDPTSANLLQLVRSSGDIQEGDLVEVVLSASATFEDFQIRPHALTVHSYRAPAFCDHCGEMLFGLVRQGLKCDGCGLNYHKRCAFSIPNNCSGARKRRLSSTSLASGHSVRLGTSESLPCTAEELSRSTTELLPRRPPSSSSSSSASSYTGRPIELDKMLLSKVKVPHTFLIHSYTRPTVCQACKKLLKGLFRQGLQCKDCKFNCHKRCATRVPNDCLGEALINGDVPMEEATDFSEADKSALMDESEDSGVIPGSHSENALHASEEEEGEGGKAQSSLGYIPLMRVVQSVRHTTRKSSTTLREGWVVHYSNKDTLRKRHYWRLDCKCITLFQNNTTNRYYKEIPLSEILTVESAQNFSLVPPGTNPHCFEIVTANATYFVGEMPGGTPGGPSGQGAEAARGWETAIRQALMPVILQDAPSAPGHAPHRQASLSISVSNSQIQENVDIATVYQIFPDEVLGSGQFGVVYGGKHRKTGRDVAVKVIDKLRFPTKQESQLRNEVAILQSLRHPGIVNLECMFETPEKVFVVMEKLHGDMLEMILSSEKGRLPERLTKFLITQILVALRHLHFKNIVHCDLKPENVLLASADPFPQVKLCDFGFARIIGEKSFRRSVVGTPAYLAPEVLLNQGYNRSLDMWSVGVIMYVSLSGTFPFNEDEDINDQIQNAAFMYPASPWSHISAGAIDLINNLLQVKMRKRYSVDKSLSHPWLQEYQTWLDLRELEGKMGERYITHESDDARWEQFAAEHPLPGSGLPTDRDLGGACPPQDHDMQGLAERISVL

[4] = target: Death-associated protein kinase 3 (Homo sapiens) (UniProt O43293); test: Selectivity interaction (KinomeScan (DiscoverX)) EUB0001079a DAPK3; conditions: at 1 µM
[5] = target: Insulin receptor-related protein (Homo sapiens) (UniProt P14616); test: Selectivity interaction (SelectScreen profiling (Invitrogen)) EUB0000607a INSRR; conditions: at 2 µM
[6] = target: 5'-AMP-activated protein kinase catalytic subunit alpha-2 (Homo sapiens) (UniProt P54646); test: Selectivity interaction (ActivX KiNativ screen (ex vivo kinase selectivity in human PBMCs)) EUB0001619a PRKAA2; type: cell-based; conditions: PBMC, at 1 µM
[7] = target: Tyrosine-protein kinase BTK (Homo sapiens, UniProt Q06187); conditions: at 10 µM
Sequence of Tyrosine-protein kinase BTK (Q06187 whole entry): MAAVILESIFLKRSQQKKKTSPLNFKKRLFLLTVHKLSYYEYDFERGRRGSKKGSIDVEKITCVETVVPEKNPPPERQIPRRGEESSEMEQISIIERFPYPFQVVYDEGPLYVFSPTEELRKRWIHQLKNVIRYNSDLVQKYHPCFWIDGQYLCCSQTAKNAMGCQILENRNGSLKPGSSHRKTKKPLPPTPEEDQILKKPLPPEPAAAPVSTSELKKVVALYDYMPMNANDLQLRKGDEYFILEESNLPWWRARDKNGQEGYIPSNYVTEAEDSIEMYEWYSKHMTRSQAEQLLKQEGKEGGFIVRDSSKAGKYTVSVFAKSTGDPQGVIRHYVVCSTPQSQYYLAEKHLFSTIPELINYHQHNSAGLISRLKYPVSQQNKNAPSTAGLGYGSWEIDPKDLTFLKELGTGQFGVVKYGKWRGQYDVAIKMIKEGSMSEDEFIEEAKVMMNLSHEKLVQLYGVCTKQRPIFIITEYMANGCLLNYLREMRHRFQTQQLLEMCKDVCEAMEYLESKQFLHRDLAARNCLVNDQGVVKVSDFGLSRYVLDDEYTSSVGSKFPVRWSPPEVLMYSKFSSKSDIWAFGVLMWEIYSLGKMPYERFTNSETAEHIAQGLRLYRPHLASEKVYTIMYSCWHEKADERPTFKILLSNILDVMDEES

Sequence of Insulin receptor-related protein (Homo sapiens) (P14616 27-742 limits assumed): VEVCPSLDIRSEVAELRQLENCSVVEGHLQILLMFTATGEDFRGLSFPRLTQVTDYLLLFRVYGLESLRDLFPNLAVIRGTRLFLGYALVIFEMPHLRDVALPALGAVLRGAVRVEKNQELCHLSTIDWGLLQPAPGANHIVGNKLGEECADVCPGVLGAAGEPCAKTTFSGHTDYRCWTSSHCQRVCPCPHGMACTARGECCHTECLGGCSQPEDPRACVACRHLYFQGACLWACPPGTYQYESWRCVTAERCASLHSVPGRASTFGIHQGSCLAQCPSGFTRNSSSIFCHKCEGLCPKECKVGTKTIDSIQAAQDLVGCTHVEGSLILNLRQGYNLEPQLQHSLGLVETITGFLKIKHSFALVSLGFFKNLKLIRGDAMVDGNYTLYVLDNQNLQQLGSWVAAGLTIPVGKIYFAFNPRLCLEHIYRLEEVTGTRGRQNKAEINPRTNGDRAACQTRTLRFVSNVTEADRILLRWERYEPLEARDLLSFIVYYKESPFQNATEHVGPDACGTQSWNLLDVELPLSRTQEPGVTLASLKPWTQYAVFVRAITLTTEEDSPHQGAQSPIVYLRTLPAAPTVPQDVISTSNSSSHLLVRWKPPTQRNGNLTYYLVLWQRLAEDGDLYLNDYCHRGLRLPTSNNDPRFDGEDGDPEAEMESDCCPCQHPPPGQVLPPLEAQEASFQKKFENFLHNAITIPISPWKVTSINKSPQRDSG
Sequence of Insulin receptor-related protein (Homo sapiens) (P14616 747-1297 limits assumed): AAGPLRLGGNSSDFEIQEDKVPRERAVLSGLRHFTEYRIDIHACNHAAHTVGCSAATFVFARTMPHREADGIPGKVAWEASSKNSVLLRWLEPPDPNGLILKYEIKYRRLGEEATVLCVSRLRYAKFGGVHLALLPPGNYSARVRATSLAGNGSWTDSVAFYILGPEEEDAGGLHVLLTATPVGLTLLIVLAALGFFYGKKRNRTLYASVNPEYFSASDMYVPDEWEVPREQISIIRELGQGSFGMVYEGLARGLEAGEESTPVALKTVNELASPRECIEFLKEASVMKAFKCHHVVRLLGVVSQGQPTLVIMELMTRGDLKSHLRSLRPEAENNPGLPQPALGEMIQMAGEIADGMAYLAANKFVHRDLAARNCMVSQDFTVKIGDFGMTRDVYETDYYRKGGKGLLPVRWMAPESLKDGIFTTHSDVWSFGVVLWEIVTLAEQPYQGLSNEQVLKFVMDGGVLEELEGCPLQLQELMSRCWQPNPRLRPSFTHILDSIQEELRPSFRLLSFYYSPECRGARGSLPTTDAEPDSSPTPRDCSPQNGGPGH
Sequence of 5'-AMP-activated protein kinase catalytic subunit alpha-2 (Homo sapiens) (P54646 whole entry, looked up): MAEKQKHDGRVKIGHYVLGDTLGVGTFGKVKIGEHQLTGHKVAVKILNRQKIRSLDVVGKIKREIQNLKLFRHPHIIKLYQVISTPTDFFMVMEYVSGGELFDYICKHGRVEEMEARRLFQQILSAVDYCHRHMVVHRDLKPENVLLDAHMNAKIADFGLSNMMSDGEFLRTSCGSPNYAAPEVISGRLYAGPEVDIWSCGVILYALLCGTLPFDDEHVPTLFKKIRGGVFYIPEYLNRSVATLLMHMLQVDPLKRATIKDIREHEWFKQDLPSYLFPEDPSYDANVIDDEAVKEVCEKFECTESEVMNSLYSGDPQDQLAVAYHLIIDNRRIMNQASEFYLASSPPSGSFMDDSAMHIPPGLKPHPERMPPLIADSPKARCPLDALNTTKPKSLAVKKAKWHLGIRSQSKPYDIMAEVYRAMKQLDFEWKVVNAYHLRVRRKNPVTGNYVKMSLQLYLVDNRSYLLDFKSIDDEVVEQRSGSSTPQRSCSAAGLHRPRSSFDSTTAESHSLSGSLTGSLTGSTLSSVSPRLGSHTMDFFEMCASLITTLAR
Sequence of Death-associated protein kinase 3 (Homo sapiens) (O43293 whole entry, looked up): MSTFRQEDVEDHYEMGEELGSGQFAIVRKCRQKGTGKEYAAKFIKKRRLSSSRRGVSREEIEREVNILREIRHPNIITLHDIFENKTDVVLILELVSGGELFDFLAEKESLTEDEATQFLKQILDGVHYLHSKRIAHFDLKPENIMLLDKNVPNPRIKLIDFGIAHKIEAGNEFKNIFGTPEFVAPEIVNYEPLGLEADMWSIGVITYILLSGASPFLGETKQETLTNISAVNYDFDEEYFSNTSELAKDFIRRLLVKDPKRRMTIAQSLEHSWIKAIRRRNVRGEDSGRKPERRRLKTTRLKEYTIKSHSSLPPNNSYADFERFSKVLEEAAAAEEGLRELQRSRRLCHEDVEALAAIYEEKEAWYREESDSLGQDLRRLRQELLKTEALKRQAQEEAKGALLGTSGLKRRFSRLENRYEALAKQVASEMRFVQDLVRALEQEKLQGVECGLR

In the case of Cc1cc(C)cc([C@@H]2c3cc(C)ccc3NC(=O)CN2C(=O)c2ccc(Br)s2)c1, the % of activity ([1]; at 1 µM) was 100% and the % of activity ([1]; at 10 µM) was 101%.
Compound CN(C)C/C=C/C(=O)Nc1ccc(C(=O)N2CCCC(Nc3ncc(Cl)c(-c4c[nH]c5ccccc45)n3)C2)cc1 (stereo not drawn) has a % of control [2] of 50% and a % of control [3] of 55%.
For Nc1cnc(N2CCc3cc(S(=O)(=O)Nc4c(F)cc(Cl)cc4F)cc(N4CCCC4=O)c32)nc1 [TP-020n], the % of control [4] was 83%.
CNC(=O)Nc1ccc(-c2nc(N3CC4CCC(C3)O4)c3cnn(C4CCC5(CC4)OCCO5)c3n2)cc1 was tested, and the % of inhibition [5] was 6%.
With N#Cc1cccc(-c2c[nH]c3ncnc(N4CCOCC4)c23)c1 the % of inhibition [6] was 33%.
For Cc1cc([C@@H](C)Nc2ccccc2C(=O)O)c2nc(N3CCOCC3)cc(=O)n2c1 [AZD-6482], the % of control [7] was 97%.
